In ChEMBL document CHEMBL5233276, “Cathepsin C inhibitors as anti-inflammatory drug discovery: Challenges and opportunities” (Eur J Med Chem, 2021):
Where a SMILES comes first, the peptide text is derived from it. The star is where a group is joined. CHN2 = [N-]=[N+]=C*

Experiments:
Dipeptidyl peptidase 1 [1] = target: T1, Dipeptidyl peptidase 1 (Homo sapiens, UniProt P53634); assay: Inhibition of human Cathepsin C using Gly-Phe-paranitroanilide as substrate incubated for 12 mins
Dipeptidyl peptidase 1 [2] = target: T1, Dipeptidyl peptidase 1; assay: Inhibition of human Cathepsin C using Gly- L -Phe-p-nitroanilide.HCl as substrate
Dipeptidyl peptidase 1 [3] = target: T1, Dipeptidyl peptidase 1; assay: Inhibition of human Cathepsin C using Z-Arg-Arg-AM as substrate at 3 microM relative to control
Dipeptidyl peptidase 1 [4] = target: T1, Dipeptidyl peptidase 1; assay: Inhibition of human Cathepsin C using Gly-Phe-AMC as substrate assessed as kobs/[I]
Dipeptidyl peptidase 1 [5] = target: T1, Dipeptidyl peptidase 1; assay: Inhibition of human Cathepsin C using Ala-4-[ 125 I]Phe-DMK as substrate preincubated for 30 mins followed by substrate addition measured after 6 to 24 hrs
Mus musculus = assay: Inhibition of Cathepsin C in mouse spleen measured at 5 mg/kg ip, relative to control; format: organism-based
Dipeptidyl peptidase 1 [6] = target: T1, Dipeptidyl peptidase 1; assay: Inhibition of Cathepsin C (unknown origin)

T1 sequence (P53634 25-134 limits assumed): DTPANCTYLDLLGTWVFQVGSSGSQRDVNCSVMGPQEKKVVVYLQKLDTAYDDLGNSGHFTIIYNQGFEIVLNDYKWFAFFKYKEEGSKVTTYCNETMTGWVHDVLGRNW
T1 sequence (P53634 231-394 limits assumed): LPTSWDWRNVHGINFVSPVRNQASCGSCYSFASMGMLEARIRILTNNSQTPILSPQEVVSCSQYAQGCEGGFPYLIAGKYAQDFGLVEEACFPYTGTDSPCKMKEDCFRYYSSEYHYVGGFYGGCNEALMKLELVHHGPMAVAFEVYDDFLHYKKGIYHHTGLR
T1 sequence (P53634 395-463 limits assumed): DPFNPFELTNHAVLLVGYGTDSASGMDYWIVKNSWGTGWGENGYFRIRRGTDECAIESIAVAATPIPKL

## CC[C@H](N)C(=O)N[C@]1(C#N)C[C@@H]1c1ccc(-c2ccc(S(=O)(=O)N3CCN(C)CC3)cc2)cc1
Dipeptidyl peptidase 1 [1]
  IC50: 15 nM

## CC(C)CC(NC(=O)CN)P(=O)(O)CCC(=O)O (stereo unspecified)
Dipeptidyl peptidase 1 [2]
  IC50: 39000 nM

## C[C@@H](O)[C@H](N)C(=O)N[C@@H](/C=C/S(C)(=O)=O)CCC(=O)O
Dipeptidyl peptidase 1 [3]
  IC50: 4900 nM
Dipeptidyl peptidase 1 [4]
  Ratio: 2900 M⁻¹ s⁻¹

## C[C@H](N)C(=O)N[C@H](/C=C/S(=O)(=O)c1ccccc1)CCc1ccccc1
Dipeptidyl peptidase 1 [3]
  ID50: 100 nM
Dipeptidyl peptidase 1 [4]
  Ratio: 2 10^6/M/s

## N#[N+][CH-]C(=O)[C@H](Cc1ccccc1)NC(=O)CN
Dipeptidyl peptidase 1 [5]
  IC50: 50 nM

## [N-]=[N+]=CC(=O)[C@H](Cc1ccccc1)NC(=O)CN (H-Gly-Phe-CHN2)
Dipeptidyl peptidase 1 [3]
  inhibition: > 90%
Mus musculus
  inhibition: > 90%

## CC[C@@H](/C=C/C(=O)N1CCc2ccccc21)NC(=O)C1(N)CCOCC1
Dipeptidyl peptidase 1 [6]
  IC50: 1 nM

## C=CC(=O)Nc1cc2c(Nc3ccc(F)c(Cl)c3)ncnc2cc1OCCCN1CCOCC1 [CANERTINIB]
Dipeptidyl peptidase 1 [6]
  IC50: 120 nM
